From paper doi:10.1101/2025.01.07.631748, “Strategic Modulation of Polarity and Viscosity Sensitivity of Bimane Molecular Rotor-Based Fluorophores for Imaging α-Synuclein” (bioRxiv, 2025)

Key:
[1] = biological target: T1, α-synuclein (αS) fibrils (Homo sapiens, UniProt P37840); experiment: fluorescence turn-on binding titration with αS fibrils
T1 construct: gene SNCA

[2] = biological target: T1, α-synuclein (αS) fibrils; experiment: fluorescence competition binding with 3c and 4a; fluorescence turn-on

SMILES | Kd [1] | fluorescence competition binding with 3c and 4a; fluorescence turn-on [2]
Cc1c(C)n2c(/C=C/c3ccc(N4CCC4)cc3)c(C)c(=O)n2c1=O [3d, RBF 3d] | 3d and 3e, with cyclic amines, showed reduced affinity | –
Cc1c(C)n2c(/C=C/c3ccc(N4CCOCC4)cc3)c(C)c(=O)n2c1=O [3e, RBF 3e] | 3d and 3e, with cyclic amines, showed reduced affinity | –
Cc1ccc2c(c1)sc(-c1ccc(N(C)C)cc1)[n+]2C [ThT, Thioflavin-T] | – | both 3c and 4a competed with the promiscuous binder ThT, but that some ThT emission remained at saturating concentrations
